{
  "source": "PubChem BioAssay (NCI)",
  "assay_in_all_cases": "NCI-60 cell line screen, 48 h",
  "key": {"[1]": {"system": "LOX IMVI melanoma"}, "[2]": {"system": "MCF7 breast"}, "[3]": {"system": "SK-MEL-2 melanoma"}, "[4]": {"system": "SNB-75 CNS"}, "[5]": {"system": "SF-295 CNS"}, "[6]": {"system": "A549 NSCLC"}, "[7]": {"system": "A498 renal"}, "[8]": {"system": "SNB-19 CNS"}, "[9]": {"system": "SF-268 CNS"}, "[10]": {"system": "EKVX NSCLC"}, "[11]": {"system": "PC-3 prostate"}, "[12]": {"system": "UO-31 renal"}, "[13]": {"system": "UACC-257 melanoma"}, "[14]": {"system": "NCI-H23 lung"}, "[15]": {"system": "786-0 renal"}, "[16]": {"system": "ACHN renal"}, "[17]": {"system": "M14 melanoma"}, "[18]": {"system": "TK-10 renal"}, "[19]": {"system": "RXF 393 renal"}, "[20]": {"system": "HCT-116 colon"}, "[21]": {"system": "NCI-H522 lung"}, "[22]": {"system": "OVCAR-4 ovarian"}, "[23]": {"system": "NCI/ADR-RES ovarian"}, "[24]": {"system": "MDA-MB-231 breast"}},
  "note": "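Protocol summary: plate cells (96-well), add compound at 5 concentrations, incubate 48 h, interpolate endpoints linearly. GI50 is the concentration that inhibits growth by half. TGI is the concentration that stops growth completely.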",
  "data": [
    {"smiles": "COc1ccc2c(c1)c(-c1cc3nc(-c4cn(C)c5ncc(Br)cc45)cc(N)n3n1)cn2C", "values": [
      {"measurement": "GI50", "setting": "[1]", "result": 1530, "unit": "nM"},
      {"measurement": "TGI", "setting": "[1]", "result": 2890, "unit": "nM"},
      {"measurement": "GI50", "setting": "[2]", "result": 1770, "unit": "nM"},
      {"measurement": "TGI", "setting": "[2]", "result": 3720, "unit": "nM"},
      {"measurement": "GI50", "setting": "[3]", "result": 2070, "unit": "nM"},
      {"measurement": "TGI", "setting": "[3]", "result": 4840, "unit": "nM"},
      {"measurement": "GI50", "setting": "[4]", "result": 1660, "unit": "nM"},
      {"measurement": "TGI", "setting": "[4]", "result": 4580, "unit": "nM"},
      {"measurement": "GI50", "setting": "[5]", "result": 1770, "unit": "nM"},
      {"measurement": "TGI", "setting": "[5]", "result": 3650, "unit": "nM"},
      {"measurement": "GI50", "setting": "[6]", "result": 2310, "unit": "nM"},
      {"measurement": "TGI", "setting": "[6]", "result": 9050, "unit": "nM"},
      {"measurement": "GI50", "setting": "[7]", "result": 2180, "unit": "nM"},
      {"measurement": "TGI", "setting": "[7]", "result": 7220, "unit": "nM"},
      {"measurement": "GI50", "setting": "[8]", "result": 2250, "unit": "nM"},
      {"measurement": "TGI", "setting": "[8]", "result": 5580, "unit": "nM"},
      {"measurement": "GI50", "setting": "[9]", "result": 2300, "unit": "nM"},
      {"measurement": "TGI", "setting": "[9]", "result": 6140, "unit": "nM"},
      {"measurement": "GI50", "setting": "[10]", "result": 1480, "unit": "nM"},
      {"measurement": "TGI", "setting": "[10]", "result": 3390, "unit": "nM"},
      {"measurement": "GI50", "setting": "[11]", "result": 2450, "unit": "nM"},
      {"measurement": "TGI", "setting": "[11]", "result": "> 100000", "unit": "nM"},
      {"measurement": "GI50", "setting": "[12]", "result": 1780, "unit": "nM"},
      {"measurement": "TGI", "setting": "[12]", "result": 4410, "unit": "nM"},
      {"measurement": "GI50", "setting": "[13]", "result": 1790, "unit": "nM"},
      {"measurement": "TGI", "setting": "[13]", "result": 3720, "unit": "nM"},
      {"measurement": "GI50", "setting": "[14]", "result": 2250, "unit": "nM"},
      {"measurement": "TGI", "setting": "[14]", "result": 6770, "unit": "nM"},
      {"measurement": "GI50", "setting": "[15]", "result": 1730, "unit": "nM"},
      {"measurement": "TGI", "setting": "[15]", "result": 3160, "unit": "nM"},
      {"measurement": "GI50", "setting": "[16]", "result": 1500, "unit": "nM"},
      {"measurement": "TGI", "setting": "[16]", "result": 3150, "unit": "nM"},
      {"measurement": "GI50", "setting": "[17]", "result": 1660, "unit": "nM"},
      {"measurement": "TGI", "setting": "[17]", "result": 3230, "unit": "nM"},
      {"measurement": "GI50", "setting": "[18]", "result": 2360, "unit": "nM"},
      {"measurement": "TGI", "setting": "[18]", "result": 6690, "unit": "nM"},
      {"measurement": "GI50", "setting": "[19]", "result": 1960, "unit": "nM"},
      {"measurement": "TGI", "setting": "[19]", "result": 3570, "unit": "nM"},
      {"measurement": "GI50", "setting": "[20]", "result": 1660, "unit": "nM"},
      {"measurement": "TGI", "setting": "[20]", "result": 3040, "unit": "nM"},
      {"measurement": "GI50", "setting": "[21]", "result": 1870, "unit": "nM"},
      {"measurement": "TGI", "setting": "[21]", "result": 3900, "unit": "nM"},
      {"measurement": "GI50", "setting": "[22]", "result": 2130, "unit": "nM"},
      {"measurement": "TGI", "setting": "[22]", "result": 5170, "unit": "nM"},
      {"measurement": "GI50", "setting": "[23]", "result": 2280, "unit": "nM"},
      {"measurement": "TGI", "setting": "[23]", "result": 5620, "unit": "nM"},
      {"measurement": "GI50", "setting": "[24]", "result": 1620, "unit": "nM"},
      {"measurement": "TGI", "setting": "[24]", "result": 3280, "unit": "nM"}
    ]}
  ]
}
